From PubChem BioAssay (NCI)
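Five concentrations, 48 hours, 96-well plates. GI50: concentration for 50% inhibition of growth. TGI: concentration producing complete growth inhibition.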

How the values were obtained:
Test in all cases: NCI tumour cell line growth inhibition, 48 h
T-47D breast = system: T-47D breast
NCI-H23 lung = system: NCI-H23 lung
SK-MEL-28 melanoma = system: SK-MEL-28 melanoma
HOP-92 NSCLC = system: HOP-92 NSCLC
SK-MEL-5 melanoma = system: SK-MEL-5 melanoma
KM12 colon = system: KM12 colon
K-562 leukemia = system: K-562 leukemia
SF-295 CNS = system: SF-295 CNS

Row | Compound | GI50 (T-47D breast) [µM] | TGI (T-47D breast) [µM] | GI50 (NCI-H23 lung) [µM] | TGI (NCI-H23 lung) [µM] | GI50 (SK-MEL-28 melanoma) [µM] | TGI (SK-MEL-28 melanoma) [µM] | GI50 (HOP-92 NSCLC) [µM] | TGI (HOP-92 NSCLC) [µM] | GI50 (SK-MEL-5 melanoma) [µM] | GI50 (KM12 colon) [µM] | TGI (KM12 colon) [µM] | GI50 (K-562 leukemia) [µM] | TGI (K-562 leukemia) [µM] | TGI (SF-295 CNS) [µM] | TGI (SK-MEL-5 melanoma) [µM] | GI50 (SF-295 CNS) [µM]
1 | Cc1ccc(/C=C2/SC(Nc3nc(-c4nc(NC5=NC(=O)/C(=C\c6ccc(C)cc6)S5)sc4C)c(C)s3)=NC2=O)cc1 | 22.3 | > 50 | 0.895 | 8.46 | 35.3 | > 50 | 17.1 | > 47.8 | 0.077 | 0.289 | 18.6 | 0.418 | > 50 | 0.874 | – | –
2 | CN1CCN(c2nc(NCCCCNc3ccnc4cc(Cl)ccc34)c3ccccc3n2)CC1 | 2.23 | 6.65 | 11.7 | 29.7 | 1.85 | 3.57 | 1.66 | 4.12 | 1.78 | 8.25 | 25.1 | 2.53 | 11.8 | 3.73 | 3.19 | 1.84
3 | Cc1nc2cnc3cc(F)c(-c4ccc(Oc5ncccn5)cc4Cl)cc3c2n1[C@H]1CCN(C(=O)CO)C[C@@H]1F | 36 | > 100 | 0.32 | 13.7 | 0.023 | 12.1 | 0.403 | 3.5 | 0.49 | 0.0405 | > 100 | 4.6 | > 100 | > 57.1 | 14.7 | 8.41
4 | O=C(/C=C/c1cccs1)c1ccc(Nc2nc(Nc3ccc(F)cc3)nc(Nc3ccc(F)cc3)n2)cc1 | 15.2 | 79.1 | 24.2 | 71.2 | 18.2 | 39.1 | 25.8 | 57.8 | 56.4 | 16.3 | 45.2 | 29.9 | > 100 | 46.6 | > 100 | 20.4
5 | CC(C)[C@@]12C[C@@H](OC(=O)COC(=O)/C=C/c3ccccc3)[C@@](C)(O1)[C@@H]1CC[C@@H](C)[C@H]1[C@@H]2OC(=O)/C=C/c1ccccc1 | > 100 | > 100 | > 100 | > 100 | > 100 | > 100 | > 64.9 | > 100 | > 100 | > 100 | > 100 | > 78.1 | > 100 | > 100 | > 100 | > 100
6 | COc1ccc2c(c1)c(-c1nc(-c3c[nH]c4ncccc34)cs1)cn2CCCCN1CCOCC1 | 2.12 | 6.5 | 2.14 | 5.08 | 1.85 | 3.4 | 1.67 | 4.17 | 1.75 | 1.93 | 3.96 | 1.95 | 3.99 | 4.07 | 3.16 | 1.93
7 | COc1cc(C(O)c2nc3ccccc3s2)cc(OC)c1OC (configuration not stated) | 17.3 | > 100 | 7.32 | > 100 | > 100 | > 100 | 1.15 | 31.2 | 7.35 | 78.3 | > 100 | 3.6 | > 100 | > 100 | 79.5 | 6.29
8 | Cn1ccnc1C(=O)/C=C/c1ccc(CC(=O)Nc2ccc(S(F)(F)(F)(F)F)cc2)cc1 | 3.1 | 10.4 | 2.37 | 4.82 | 2.83 | 5.88 | 1.13 | 3.92 | 3.02 | 2.04 | 4.7 | 0.549 | 16.7 | 4.73 | 5.48 | 2.16
9 | O=C1c2ccc3c4c5ccc(c24)C(=O)N1CCCOCCCCOCCCNCc1ccc(cc1)CNCCCOCCCCOCCCN(C3=O)C5=O | 0.997 | 2.28 | 0.93 | 1.81 | 0.894 | 1.63 | 0.782 | 2.08 | 0.855 | 0.896 | 2.06 | 0.987 | 2.4 | 1.69 | 1.55 | 0.881
10 | C=CC1=C[C@@H]2[C@@H]3O[C@]4(CC[C@H](O4)[C@@H](C)C[C@@H](O)C3=O)C[C@H](O)C3=NCC[C@@]32CC1 | < 0.00333 | 0.00634 | < 0.00333 | < 0.00333 | < 0.00333 | < 0.00333 | < 0.00333 | 0.00606 | < 0.00333 | < 0.00333 | 0.0061 | < 0.00333 | > 33.3 | < 0.00333 | < 0.00333 | < 0.00333
11 | CN(CC(=O)O)c1ccc(/C=C/c2ccnc3ccccc23)cc1 | – | > 100 | – | > 100 | – | > 100 | – | > 100 | – | – | 41.2 | – | > 100 | 54.5 | 31.7 | –
12 | COC1(O)C(=O)c2ccccc2OC1(OC)c1ccccc1 (configuration not stated) | – | > 100 | – | > 100 | – | > 100 | – | > 100 | – | – | – | – | > 100 | > 100 | > 100 | –
13 | O=C(CCCCCCSc1nc(-c2ccccc2)cc(-c2ccccc2)n1)NO | 1.86 | 8.21 | 1.97 | 5.55 | 2.85 | 12.4 | 1.75 | 4.95 | 1.46 | 3.22 | 15.9 | 1.58 | 12 | 5.78 | 3.48 | 2.18
14 | COc1ccn2c(C(C)=O)cc(C(=O)c3ccc4c(c3)Sc3ccccc3N4)c2c1 | 44.7 | > 100 | 0.136 | > 100 | 0.884 | > 100 | – | > 100 | 0.104 | 0.0874 | > 27.3 | 0.0643 | > 100 | – | 0.449 | –
15 | COc1ccc(-c2cc(-c3ccccc3)nc(N3CCN(CCNc4ccnc5cc(Cl)ccc45)CC3)n2)cc1 | 1.55 | 3.73 | 1.9 | 5.23 | 1.52 | 2.94 | 1.14 | 3.35 | 1.62 | 1.94 | 4.04 | – | – | 33 | 3 | 16.6
16 | COc1ccc(-c2cnnn2-c2cc(OC)c3c(c2)OCO3)cc1 | – | – | 0.286 | > 100 | 0.58 | > 100 | 0.187 | 24.8 | 0.185 | 0.0564 | > 30.8 | 0.0417 | > 100 | > 100 | 7.33 | 0.0585

Row | Compound | GI50 (T-47D breast) [µM] | TGI (T-47D breast) [µM] | GI50 (NCI-H23 lung) [µM] | TGI (NCI-H23 lung) [µM] | GI50 (SK-MEL-28 melanoma) [µM] | TGI (SK-MEL-28 melanoma) [µM] | GI50 (HOP-92 NSCLC) [µM] | TGI (HOP-92 NSCLC) [µM] | GI50 (SK-MEL-5 melanoma) [µM] | GI50 (KM12 colon) [µM] | TGI (KM12 colon) [µM] | GI50 (K-562 leukemia) [µM] | TGI (K-562 leukemia) [µM] | TGI (SF-295 CNS) [µM] | TGI (SK-MEL-5 melanoma) [µM] | GI50 (SF-295 CNS) [µM]
17 | Cn1ccc2c(c1=O)C(=O)c1nccc3c1c-2nc1ccccc13 | 1.8 | 3.74 | 1.27 | 2.8 | 1.61 | 3.05 | 1.81 | 20.4 | 1.51 | – | – | – | – | 3.02 | 2.84 | 1.54
18 | N#Cc1c(N)nc(N2CCOCC2)c(C#N)c1-c1ccc(Cl)cc1 | 16.1 | > 100 | 73.5 | > 100 | 70.9 | > 100 | 9 | 78.4 | 27.4 | – | – | > 100 | > 100 | > 100 | > 100 | 44.8
19 | CN(C)c1ccc(-c2cc(-c3ccc(Nc4nc(Nc5ccccc5)nc(Nc5ccc(Cl)cc5)n4)cc3)nc(N)n2)cc1 | 3.04 | 17.9 | 8.47 | 53.5 | 10.8 | 29.9 | 1.48 | 13.2 | 1.89 | 3.06 | 13 | 2.61 | 11.4 | 16.6 | 11.6 | 2.4
20 | C=CCNCCCN1C(=O)c2ccc3c4c(ccc(c24)C1=O)C(=O)N(CCCNCC=C)C3=O | – | – | 0.392 | 1.42 | 1.06 | 2.6 | 1.56 | 7.83 | 0.182 | 0.417 | 1.62 | 0.296 | 1.48 | 0.955 | 0.395 | 0.2
21 | O=C1/C(=C/c2ccc([N+](=O)[O-])o2)Oc2ccc(Br)cc21 | 1.92 | 4.39 | 6.76 | 23.1 | 2.19 | 4.83 | 1.52 | 3.1 | 2.67 | 3.85 | 13 | 1.92 | 4.59 | 36.8 | 8.17 | 17.1
22 | CCN(CCNc1ccc(C)c2sc3cc(Cl)ccc3c(=O)c12)CC(C)O (configuration not stated) | 1.76 | 4.14 | 2.53 | 4.77 | 1.91 | 3.4 | 1.61 | 4.28 | 1.62 | 1.84 | 3.88 | 1.82 | 3.41 | 3.72 | 2.98 | 1.67
23 | CCN1CCN(CC(=O)Nc2nc3ccc(NCc4ccc(Cl)cc4)cc3s2)CC1 | 1.94 | 5.8 | 3.25 | > 100 | 1.8 | 3.31 | 1.12 | 2.77 | 1.67 | 3.73 | > 100 | 1.63 | 4.14 | – | 3.07 | –
24 | CN(c1ccc(NC(=O)Nc2ccc(OC(F)(F)F)cc2)cc1)c1ccnc(Nc2cccc(S(N)(=O)=O)c2)n1 | 3.51 | 9.35 | 2.15 | 6.25 | 3.42 | 7 | 2.36 | 6.95 | 3.96 | 0.0157 | 3.99 | 0.0874 | 4.31 | 6.48 | 7.56 | 0.861
25 | NC(=O)c1cc([N+](=O)[O-])c(Cl)c([N+](=O)[O-])c1 | 2.32 | 5.12 | 2.78 | 8.32 | 2.05 | 4.34 | 1.96 | 4.18 | 5.59 | 4.69 | 16.3 | – | – | 31.9 | 18 | 17.3
26 | N=c1c2c(-c3ccccc3)c(-c3ccccc3)n(Cc3ccccc3)c2ncn1CCCO | 3.13 | 18.1 | 4.32 | 24.3 | 1.44 | 3.4 | – | – | 0.901 | 1.01 | 14.3 | 0.959 | 7.6 | 3.32 | 2.16 | 0.58
27 | Cc1ccc(NC(=O)c2cc3ccccc3c(N=Nc3ccccc3O)c2O)c(C)c1 | – | – | – | – | – | 79.1 | – | 12.9 | – | – | 14.8 | – | > 100 | 10.5 | 3.35 | –
28 | CC(=O)NCCSC(=O)c1ccccc1 | – | – | – | 0.191 | – | 1.14 | – | 15.5 | – | – | 2.54 | – | – | 0.83 | 0.0801 | –
29 | O=C1CC(c2ccc3c(c2)OCO3)Nc2cc3c(cc21)OCO3 (configuration not stated) | – | – | 0.479 | > 100 | – | – | – | – | 0.364 | 0.398 | 17.3 | 0.358 | > 100 | 6.81 | 1.94 | 0.348
30 | Cc1nn(-c2ccccc2)c2c1CC(=O)Nc1ccccc1-2 | – | – | 0.357 | > 100 | 0.357 | > 100 | – | – | 0.0879 | 0.0888 | > 100 | 0.044 | 0.721 | 3.06 | 45.2 | –
31 | N#Cc1cccc(C(=O)Nc2cccc(NC(=O)c3cccc(C#N)c3)c2)c1 | > 100 | > 100 | 89 | > 100 | > 100 | > 100 | 60.4 | > 100 | 29.2 | – | – | > 100 | > 100 | > 100 | > 100 | > 100
32 | CC1=CCC(OC(=O)C(C)(C)CCC(O)(C(=O)OC2(C(C)C)CCC3(C)OC3C2)C(C)C)(C(C)C)CC1 (configuration not stated) | 0.152 | 1.24 | 0.113 | 0.301 | 0.993 | 3.01 | 0.371 | 1.57 | 0.197 | 0.793 | 1.6 | – | – | 1.39 | 0.725 | 0.69
